# Literature values as cited in patent US5413991A (Ajinomoto Co., Inc., priority 1991, dated 1995).
# How the values were obtained:
# [1] = target: chitinase from baker's yeast (Saccharomyces cerevisiae) (Saccharomyces cerevisiae, UniProt P29029); details: background statement; cited from earlier work
# [2] = system: chitinase of pathogenic fungi such as Candida albicans; details: background statement; cited from earlier work
# Chain of chitinase from baker's yeast (Saccharomyces cerevisiae) (P29029 21-562): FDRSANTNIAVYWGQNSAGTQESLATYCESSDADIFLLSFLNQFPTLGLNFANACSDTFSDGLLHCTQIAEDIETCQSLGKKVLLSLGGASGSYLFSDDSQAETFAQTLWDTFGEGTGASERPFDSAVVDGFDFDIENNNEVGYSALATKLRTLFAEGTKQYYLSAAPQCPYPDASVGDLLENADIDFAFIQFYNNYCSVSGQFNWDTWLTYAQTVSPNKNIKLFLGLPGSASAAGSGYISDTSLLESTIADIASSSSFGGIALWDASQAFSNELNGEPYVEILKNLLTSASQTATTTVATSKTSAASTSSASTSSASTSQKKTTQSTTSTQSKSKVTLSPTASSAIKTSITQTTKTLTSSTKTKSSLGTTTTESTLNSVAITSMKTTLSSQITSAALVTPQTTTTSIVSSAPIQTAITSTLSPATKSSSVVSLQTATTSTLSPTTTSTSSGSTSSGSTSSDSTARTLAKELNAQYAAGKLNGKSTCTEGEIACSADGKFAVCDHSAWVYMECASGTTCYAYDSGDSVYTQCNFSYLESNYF
structure (smiles),measurement,setting,value
"CNC1=N[C@@H]2[C@@H](O)[C@H](O[C@@H]3O[C@H](CO)[C@@H](O[C@@H]4O[C@H](CO)[C@@H](O)[C@@H](O)[C@H]4NC(C)=O)[C@@H](O)[C@H]3NC(C)=O)[C@@H](CO)[C@@H]2O1 [Demethylallosamidin, demethylallosamidin]",Inhibitory activity against chitinase from baker's yeast,[1],potent inhibitory activity
same,Inhibitory activity against chitinase of Candida albicans,[2],insufficient
